# Results published in ChEMBL document CHEMBL1158419, “3D-QSAR study of 8-azabicyclo[3.2.1] octane analogs antagonists of cholinergic receptor” (Bioorg Med Chem Lett, 2009).
# Test: Antagonist activity at muscarinic receptor
# Assay type: functional
row,Compound,pKi
1,CN1[C@@H]2CC[C@H]1C[C@@H](OC(c1ccccc1)c1ccccc1)C2 [BENZTROPINE],0.33
2,"C=CCN1C2CC[C@@H]1C[C@H](OC(c1ccc(F)cc1)c1ccc(F)cc1)C2 (single isomer, unassigned)",2.25
3,COC(=O)[C@H]1[C@@H](OC(=O)c2ccccc2)C[C@@H]2CC[C@H]1N2C [COCAINE],4.79
4,C[N+]1(C)[C@@H]2CC[C@H]1C[C@@H](OC(=O)CCC(C(=O)O[C@@H]1C[C@H]3CC[C@@H](C1)[N+]3(C)C)c1ccccc1)C2 (some centres not stated),6.5
5,COC(=O)C(C(=O)O[C@@H]1C[C@@H]2[C@H]3O[C@H]3[C@H](C1)[N+]2(C)C)(c1ccccc1)C1CCCC1 (some centres not stated),7.28
6,C[N+]1(C)C2CCC1CC(OC(=O)C(CC(=O)O[C@H]1C[C@H]3CC[C@@H](C1)[N+]3(C)C)c1ccccc1)C2 (some centres not stated),7.18
7,C[N+]1(C)[C@@H]2C[C@@H](OC(=O)C(C(=O)OC3CCCCC3)c3ccccc3)C[C@H]1[C@@H]1O[C@@H]12 (some centres not stated),8.01
8,CN1[C@@H]2CC[C@H]1C[C@@H](OC(=O)C(CO)c1ccccc1)C2 (some centres not stated) [ATROPINE],9.34
9,"Fc1ccc(C(O[C@@H]2CC3CC[C@H](C2)N3Cc2ccccc2)c2ccc(F)cc2)cc1 (single isomer, unassigned)",3.01
10,CN1[C@@H]2C[C@@H](OC(=O)C(c3ccccc3)C3CCCC3)C[C@H]1[C@@H]1O[C@@H]12 (some centres not stated),7.14
11,"C[S+]([O-])COC(=O)C(O[C@@H]1CC2CC[C@H](C1)[N+]2(C)C)c1ccccc1 (single isomer, unassigned)",7.25
12,"CN1C2CC[C@@H]1C[C@H](OC(c1ccc(F)cc1)c1ccc(F)cc1)C2 (single isomer, unassigned)",1.06
13,"CCOC(=O)C(C(=O)O[C@@H]1CC2[C@H]3O[C@H]3[C@H](C1)[N+]2(C)C)c1ccccc1 (single isomer, unassigned)",8.32
14,CCOC(=O)C(C(=O)O[C@@H]1C[C@@H]2[C@H]3O[C@H]3[C@H](C1)[N+]2(C)C)(c1ccccc1)C1CCCC1 (some centres not stated),7.98
15,CCCCCCOC(=O)C(C(=O)O[C@@H]1C[C@@H]2[C@H]3O[C@H]3[C@H](C1)[N+]2(C)C)c1ccccc1 (some centres not stated),7.33
16,"CCCCN1C2CC[C@@H]1C[C@H](OC(c1ccc(F)cc1)c1ccc(F)cc1)C2 (single isomer, unassigned)",2.6
17,CN1[C@@H]2C[C@@H](OC(=O)[C@H](CO)c3ccccc3)C[C@H]1[C@@H]1O[C@@H]12 [SCOPOLAMINE],8.95
